Experimental data taken from ChEMBL document CHEMBL1134506, “Design and synthesis of 2-methyl-2-[4-(2-[5-methyl-2-aryloxazol-4-yl]ethoxy)phenoxy]propionic acids: a new class of dual PPARalpha/gamma agonists” (J Med Chem, 2001).

Key:
[1] = target: T1, Peroxisome proliferator-activated receptor alpha (Homo sapiens, UniProt Q07869); test: (§1) Binding affinity at human PPAR alpha
T1 sequence (Q07869 whole entry): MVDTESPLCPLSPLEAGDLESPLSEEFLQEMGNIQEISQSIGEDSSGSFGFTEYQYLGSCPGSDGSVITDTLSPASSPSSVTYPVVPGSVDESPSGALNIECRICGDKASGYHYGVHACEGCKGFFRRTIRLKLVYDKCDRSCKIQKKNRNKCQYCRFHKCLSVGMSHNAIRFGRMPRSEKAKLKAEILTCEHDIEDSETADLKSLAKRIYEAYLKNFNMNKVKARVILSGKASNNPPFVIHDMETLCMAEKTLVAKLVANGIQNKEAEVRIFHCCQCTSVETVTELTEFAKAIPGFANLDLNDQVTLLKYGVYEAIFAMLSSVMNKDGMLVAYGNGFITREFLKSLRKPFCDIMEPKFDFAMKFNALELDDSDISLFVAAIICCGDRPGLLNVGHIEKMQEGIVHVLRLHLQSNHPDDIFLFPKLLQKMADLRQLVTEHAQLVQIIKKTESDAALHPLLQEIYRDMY

[2] = target: T2, Peroxisome proliferator-activated receptor gamma (Homo sapiens, UniProt P37231)
T2 sequence (P37231 whole entry): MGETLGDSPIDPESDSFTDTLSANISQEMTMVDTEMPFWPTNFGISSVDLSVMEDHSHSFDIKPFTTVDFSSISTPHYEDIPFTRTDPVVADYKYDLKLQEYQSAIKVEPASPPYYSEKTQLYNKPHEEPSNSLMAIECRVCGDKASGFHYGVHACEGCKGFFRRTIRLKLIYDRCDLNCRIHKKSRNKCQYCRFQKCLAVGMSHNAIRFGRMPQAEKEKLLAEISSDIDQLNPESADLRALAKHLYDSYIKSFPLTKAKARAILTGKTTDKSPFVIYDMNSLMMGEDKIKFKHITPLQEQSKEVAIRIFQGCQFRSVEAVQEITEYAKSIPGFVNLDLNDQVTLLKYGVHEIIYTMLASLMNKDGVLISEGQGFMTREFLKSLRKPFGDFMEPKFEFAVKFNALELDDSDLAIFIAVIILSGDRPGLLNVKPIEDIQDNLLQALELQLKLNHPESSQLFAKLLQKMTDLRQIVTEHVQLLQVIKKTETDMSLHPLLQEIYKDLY
Description: Binding affinity at human peroxidase proliferator activated receptor gamma (hPPARgamma)

[3] = target: T1, Peroxisome proliferator-activated receptor alpha; test: Binding affinity towards human […] proliferator activated receptor alpha (hPPARalpha)
[4] = target: T3, Peroxisome proliferator-activated receptor gamma (Homo sapiens) (UniProt P37231); test: Binding affinity at human PPAR gamma
T3 sequence (whole entry): T2 sequence (P37231 whole entry)

[5] = target: T2, Peroxisome proliferator-activated receptor gamma; remark: listed apart in the source
[6] = target: T1, Peroxisome proliferator-activated receptor alpha; test: Binding affinity towards human […] proliferator activated receptor alpha (hPPARalpha); No binding
[7] = target: T4, Peroxisome proliferator-activated receptor alpha (Homo sapiens) (UniProt Q07869); test: as §1
T4 sequence (whole entry): T1 sequence (Q07869 whole entry)

[8] = target: T2, Peroxisome proliferator-activated receptor gamma; test: Binding affinity at human […] proliferator activated receptor gamma (hPPARgamma); No binding

| Compound | EC50 [1] [µM] | IC50 [2] [µM] | IC50 [3] [µM] | EC50 [5] [µM] | Efficacy [4] [%] | IC50 [6] | Efficacy [7] [%] | IC50 [8] |
| --- | --- | --- | --- | --- | --- | --- | --- | --- |
| Cc1c(C)c2c(c(C)c1O)CCC(C)(COc1ccc(CC3SC(=O)NC3=O)cc1)O2 (stereo unspecified) [TROGLITAZONE] |  |  |  |  |  | Not Active | < 20 |  |
| CC(C)(Oc1ccc(C(=O)c2ccc(Cl)cc2)cc1)C(=O)O [FENOFIBRIC ACID] |  |  | 68 |  | < 20 |  | < 20 | Not Active |
| Cc1oc(-c2ccccc2)nc1CCOc1ccc(CC2SC(=O)NC2=O)cc1 (stereo unspecified) | 0.771 | 0.014 | 4.09 | 0.008 |  |  |  |  |
| Cc1oc(-c2ccc(Br)cc2)nc1CCOc1ccc(OC(C)(C)C(=O)O)cc1 | 0.0619 | 4.56 | 0.242 | 1.72 |  |  |  |  |
| CN(CCOc1ccc(CC2SC(=O)NC2=O)cc1)c1ccccn1 (stereo unspecified) |  |  |  |  |  |  | 20 |  |

Now from value to molecule, other results behind:

| EC50 [1] [µM] | IC50 [2] [µM] | IC50 [3] [µM] | EC50 [5] [µM] | Compound | Efficacy [4] [%] | IC50 [6] | Efficacy [7] [%] | IC50 [8] |
| --- | --- | --- | --- | --- | --- | --- | --- | --- |
| 2.75 | 10.6 | 10.6 |  | Cc1oc(-c2ccccc2)nc1CCOc1ccc(OCC(=O)O)cc1 | 20 |  |  |  |
| 0.717 | 3.02 | 1.44 | 2.06 | Cc1oc(-c2ccccc2)nc1CCOc1ccc(OC(C)(C)C(=O)O)cc1 |  |  |  |  |
| 0.625 | 3.12 | 2.03 | 2.75 | Cc1oc(-c2ccccc2)nc1CCOc1ccc(OC(C)C(=O)O)cc1 (stereo unspecified) |  |  |  |  |
| 0.149 | 0.548 | 0.174 | 0.882 | Cc1oc(-c2ccc(-c3ccccc3)cc2)nc1CCOc1ccc(OC(C)(C)C(=O)O)cc1 |  |  |  |  |
